In ChEMBL document CHEMBL1926604, “Design and synthesis of pyridin-2-ylmethylaminopiperidin-1-ylbutyl amide CCR5 antagonists that are potent inhibitors of M-tropic (R5) HIV-1 replication” (Bioorg Med Chem Lett, 2011):
pIC50: −log10 of the molar value.

Assays:
[1] = system: Human immunodeficiency virus 1; assay: Antiviral activity against R5 tropic Human immunodeficiency virus 1 BAL infected in human PBMC cells assessed as reduction in viral replication by p24 detection based ELISA; assay type: functional, organism-based
[2] = Volume of distribution at steady state in rat at 10 umol/kg, iv; assay type: ADME, organism-based; details: in vivo, 10 umol/kg, read-out: Vdss
[3] = Cmax in rat; assay type: ADME, organism-based; details: in vivo
[4] = Volume of distribution at steady state in dog at 5 umol/kg, iv; assay type: ADME, organism-based, Canis lupus familiaris; details: in vivo, read-out: Vdss
[5] = Cmax in dog; assay type: ADME, organism-based, Canis lupus familiaris; details: in vivo
[6] = Half life in rat at 10 umol/kg, iv; assay type: ADME, organism-based; details: in vivo, 10 umol/kg
[7] = Oral bioavailability in rat; assay type: ADME, organism-based; details: in vivo
[8] = AUC (0 to infinity) in rat; assay type: ADME, organism-based; parameters: time infinity; concentration or dose not given beside the values; details: plasma
[9] = Cytotoxic activity against human PBMC assessed as reduction in cell viability; assay type: cell-based
[10] = Half life in dog at 5 umol/kg, iv; assay type: ADME, organism-based, Canis lupus familiaris; details: in vivo
[11] = Oral bioavailability in dog; assay type: ADME, organism-based, Canis lupus familiaris; details: in vivo
[12] = AUC (0 to infinity) in dog; assay type: ADME, organism-based, Canis lupus familiaris; parameters: time infinity; concentration or dose not given beside the values; details: plasma
[13] = Clearance in rat at 10 umol/kg, iv; assay type: ADME, organism-based; details: in vivo
[14] = Clearance in dog at 5 umol/kg, iv; assay type: ADME, organism-based, Canis lupus familiaris; details: in vivo
[15] = Plasma protein binding in human plasma at 1 uM after 5 hrs by LC-MS/MS analysis; assay type: ADME, cell-free; details: read-out: PPB (converted)

SMILES	pIC50 [1]	CC50 [9]	fraction unbound at 5 h, 1 µM [15]	further results
CC(CCNC(=O)c1c(Cl)cncc1Cl)N1CCC(N(Cc2ccccc2)c2ccc(Oc3ccc(C(=O)O)cc3)cc2)CC1 (stereo unspecified)	7.02	22100 nM	< 0.001	Vd [2]: 4.2 L/kg; Cmax [3]: 2790 nM; Vd [4]: 0.4 L/kg; Cmax [5]: 11200 nM; half-life [6]: 4.8 h; bioavailability [7]: 16%; AUC(0-inf) [8]: 9.07 µM·h; half-life [10]: 1.5 h; bioavailability [11]: 35%; AUC(0-inf) [12]: 14.5 µM·h; clearance [13]: 30 mL/min/kg; clearance [14]: 5 mL/min/kg
COc1ccc(N(Cc2cccc(C#N)n2)C2CCN([C@H](C)CCNC(=O)c3c(C)cc(C#N)nc3C)CC2)cc1	8.41	> 36300 nM	0.09	
COc1ccc(N(Cc2cccc(C#N)n2)C2CCN([C@H](C)CCNC(=O)c3c(C)cc(Cl)nc3C)CC2)cc1	8.46	> 35100 nM	0.16	Vd [4]: 3 L/kg; Cmax [5]: 520 nM; half-life [10]: 0.8 h; bioavailability [11]: 15%; AUC(0-inf) [12]: 0.72 µM·h; clearance [14]: 42.7 mL/min/kg
COc1ccc(N(Cc2cnccc2C)C2CCN([C@H](C)CCNC(=O)c3c(C)cc(F)nc3C)CC2)cc1	8.66	> 36300 nM	0.21	Vd [2]: 4.6 L/kg; Cmax [3]: 1270 nM; Vd [4]: 8.3 L/kg; Cmax [5]: 410 nM; half-life [6]: 3.3 h; bioavailability [7]: 3%; AUC(0-inf) [8]: 10.9 µM·h; half-life [10]: 3 h; bioavailability [11]: 10%; AUC(0-inf) [12]: 0.65 µM·h; clearance [13]: 16.6 mL/min/kg; clearance [14]: 32 mL/min/kg
COc1ccc(N(Cc2cnccc2C)C2CCN([C@H](C)CCNC(=O)c3c(C)cc(C(=O)NC(C)C)nc3C)CC2)cc1	9.02	> 32800 nM	0.11	Vd [4]: 5.2 L/kg; Cmax [5]: 920 nM; half-life [10]: 2.8 h; bioavailability [11]: 5%; AUC(0-inf) [12]: 0.48 µM·h; clearance [14]: 21.1 mL/min/kg
CC(CCNC(=O)c1c(Cl)cncc1Cl)N1CCC(N(Cc2ccccc2)c2ccc(Br)cc2)CC1 (stereo unspecified)	6.66			
COc1ccc(N(Cc2cccc(C#N)c2)C2CCN(C(C)CCNC(=O)c3c(Cl)cncc3Cl)CC2)cc1 (stereo unspecified)	7.85	> 1760 nM		
CC(CCNC(=O)c1c(Cl)cncc1Cl)N1CCC(N(Cc2cccc(C#N)c2)c2ccc(C(F)(F)F)cc2)CC1 (stereo unspecified)	9.00	12300 nM		
COc1ccc(N(Cc2cnccc2C)C2CCN([C@H](C)CCNC(=O)c3c(C)ccnc3Cl)CC2)cc1	7.65	> 37700 nM	0.12	Vd [2]: 15.4 L/kg; Cmax [3]: 3110 nM; Vd [4]: 10.3 L/kg; Cmax [5]: 150 nM; half-life [6]: 3 h; bioavailability [7]: 70%; AUC(0-inf) [8]: 18.3 µM·h; half-life [10]: 3.3 h; bioavailability [11]: 4%; AUC(0-inf) [12]: 0.2 µM·h; clearance [13]: 58.7 mL/min/kg; clearance [14]: 36.5 mL/min/kg
CC(CCNC(=O)c1c(Cl)cncc1Cl)N1CCC(N(Cc2cccc(C#N)c2)c2ccc(Br)cc2)CC1 (stereo unspecified)	7.05	6700 nM		
COCCOc1ccc(N(Cc2cnccc2C)C2CCN([C@H](C)CCNC(=O)c3c(C)cc(C#N)nc3C)CC2)cc1	7.49	> 32600 nM	0.08	
COc1cccc(CN(c2ccc(Br)cc2)C2CCN(C(C)CCNC(=O)c3c(Cl)cncc3Cl)CC2)c1 (stereo unspecified)	5.54	6400 nM		
CC(CCNC(=O)c1c(Cl)cncc1Cl)N1CCC(N(Cc2ccc(Cl)cc2)c2ccc(Br)cc2)CC1 (stereo unspecified)	< 5.89	4300 nM		
CC(CCNC(=O)c1c(Cl)cncc1Cl)N1CCC(N(Cc2ccccc2Cl)c2ccc(Br)cc2)CC1 (stereo unspecified)	< 5.90	5700 nM		
Cc1ccncc1CN(c1ccccc1)C1CCN([C@H](C)CCNC(=O)c2c(C)cc(C#N)nc2C)CC1			0.06	
COC(=O)c1ccc(N(Cc2ccccc2)C2CCN(C(C)CCNC(=O)c3c(Cl)cncc3Cl)CC2)cc1 (stereo unspecified)	6.75	21400 nM		
CC(CCNC(=O)c1c(Cl)cncc1Cl)N1CCC(N(Cc2ccccc2)c2ccc(C(F)(F)F)cc2)CC1 (stereo unspecified)	6.96	8100 nM		

SMILES	pIC50 [1]	CC50 [9]	fraction unbound at 5 h, 1 µM [15]	further results
Cc1ccncc1CN(c1ccc([S+](C)[O-])cc1)C1CCN([C@H](C)CCNC(=O)c2c(C)ncnc2C)CC1 (stereo partly specified)	< 4.49	> 32400 nM		
CC(CCNC(=O)c1c(Cl)cncc1Cl)N1CCC(N(Cc2cccc(C#N)c2)c2ccc(C#N)cc2)CC1 (stereo unspecified)	6.42	33600 nM		
COc1ccc(N(Cc2cnccc2C)C2CCN([C@H](C)CCNC(=O)c3c(C)cc(C#N)nc3C)CC2)cc1	7.60	> 34800 nM	0.02	
CC(CCNC(=O)c1c(Cl)cncc1Cl)N1CCC(N(Cc2ccccc2)c2ccc(C(=O)N(C)C)cc2)CC1 (stereo unspecified)	5.02	> 30000 nM		
COc1ccc(N(Cc2cccnc2)C2CCN([C@H](C)CCNC(=O)c3c(C)cc(F)nc3C)CC2)cc1	7.53	> 36700 nM	0.14	
CC(CCNC(=O)c1c(Cl)cncc1Cl)N1CCC(N(Cc2cccc(C#N)c2)c2ccc(OC(F)(F)F)cc2)CC1 (stereo unspecified)	8.70	6000 nM	< 0.001	Vd [2]: 23.7 L/kg; Cmax [3]: 530 nM; Vd [4]: 6 L/kg; Cmax [5]: 750 nM; half-life [6]: 5 h; bioavailability [7]: 57%; AUC(0-inf) [8]: 7.3 µM·h; half-life [10]: 5.4 h; bioavailability [11]: 36%; AUC(0-inf) [12]: 5.11 µM·h; clearance [13]: 132 mL/min/kg; clearance [14]: 15 mL/min/kg
CC(CCNC(=O)c1c(Cl)cncc1Cl)N1CCC(N(Cc2ccccc2)c2ccc(C#N)cc2)CC1 (stereo unspecified)	6.42	9700 nM		
COc1ccc(N(Cc2cccc(C#N)n2)C2CCN([C@H](C)CCNC(=O)c3c(C)cc(F)nc3C)CC2)cc1	8.44	> 35800 nM	0.21	
COc1ccc(N(Cc2cnccc2C)C2CCN([C@H](C)CCNC(=O)c3c(C)ccnc3C)CC2)cc1	5.98	> 38900 nM	0.05	
Cc1ccncc1CN(c1ccc(OCC(N)=O)cc1)C1CCN([C@H](C)CCNC(=O)c2c(C)cc(C#N)nc2C)CC1	8.48	> 34300 nM	0.11	
COc1ccc(N(Cc2cnccc2C)C2CCN([C@H](C)CCNC(=O)c3c(C)cncc3C)CC2)cc1	4.94	> 38800 nM		
CC(CCNC(=O)c1c(Cl)cncc1Cl)N1CCC(N(Cc2ccccc2)c2ccc(OC(F)(F)F)cc2)CC1 (stereo unspecified)	7.23	4000 nM		
COc1ccc(N(Cc2ccccc2)C2CCN(C(C)CCNC(=O)c3c(Cl)cncc3Cl)CC2)cc1 (stereo unspecified)	5.66	36500 nM		
COCCOc1ccc(N(Cc2cnccc2C)C2CCN([C@H](C)CCNC(=O)c3c(C)cc(F)nc3C)CC2)cc1	7.64	> 32700 nM	0.19	
COCCOc1ccc(N(Cc2cnccc2C)C2CCN([C@H](C)CCNC(=O)c3c(C)cc(Cl)nc3C)CC2)cc1	8.70	> 32700 nM	0.15	Vd [2]: 9.2 L/kg; Cmax [3]: 1070 nM; Vd [4]: 4.9 L/kg; Cmax [5]: 10 nM; half-life [6]: 1.7 h; bioavailability [7]: 27%; AUC(0-inf) [8]: 7.18 µM·h; half-life [10]: 1.3 h; bioavailability [11]: < 1%; AUC(0-inf) [12]: 0.02 µM·h; clearance [13]: 61.2 mL/min/kg; clearance [14]: 157 mL/min/kg
CC(CCNC(=O)c1c(Cl)cncc1Cl)N1CCC(N(Cc2cccc(Cl)c2)c2ccc(Br)cc2)CC1 (stereo unspecified)	6.40	7300 nM		
